# Reference: ChEMBL document CHEMBL3045868, “Synthesis and antibacterial activities of para-alkoxy phenyl--ketoaldehyde derivatives” (Med Chem Res, 2013)
# How the values were obtained:
# [1] = test system: Staphylococcus aureus; experiment: Antibacterial activity against Staphylococcus aureus clinical isolate 19 assessed as growth inhibition at pH 7 after 16 to 18 hr by NCCLS agar dilution method; assay type: functional
# [2] = test system: Staphylococcus aureus; experiment: Bactericidal activity against Staphylococcus aureus clinical isolate 10 after 24 hr; assay type: functional; conditions: isolate 10, 24 h
# [3] = test system: Staphylococcus aureus; experiment: Antibacterial activity against Staphylococcus aureus clinical isolate 22 assessed as growth inhibition at pH 9 after 16 to 18 hr by NCCLS agar dilution method; assay type: functional
# [4] = test system: Staphylococcus aureus; experiment: Antibacterial activity against Staphylococcus aureus clinical isolate assessed as growth inhibition at pH 7 after 16 to 18 hr by NCCLS agar dilution method; assay type: functional
# [5] = test system: Staphylococcus aureus; experiment: Antibacterial activity against Staphylococcus aureus clinical isolate 5 assessed as growth inhibition after 16 to 18 hr by NCCLS agar dilution method; assay type: functional
# [6] = test system: Staphylococcus aureus; experiment: Antibacterial activity against Staphylococcus aureus clinical isolate 2 assessed as growth inhibition at pH 9 after 16 to 18 hr by NCCLS agar dilution method; assay type: functional
# [7] = test system: Staphylococcus aureus; experiment: Antibacterial activity against Staphylococcus aureus clinical isolate 7 assessed as growth inhibition after 16 to 18 hr by NCCLS agar dilution method; assay type: functional
# [8] = test system: Staphylococcus aureus; experiment: Bactericidal activity against Staphylococcus aureus clinical isolate 5 after 24 hr; assay type: functional; conditions: isolate 5, 24 h
# [9] = test system: Staphylococcus aureus; experiment: Antibacterial activity against Staphylococcus aureus clinical isolate 13 assessed as growth inhibition at pH 7 after 16 to 18 hr by NCCLS agar dilution method; assay type: functional
# [10] = test system: Staphylococcus aureus; experiment: Antibacterial activity against Staphylococcus aureus clinical isolate 3 assessed as growth inhibition after 16 to 18 hr by NCCLS agar dilution method; assay type: functional
# [11] = test system: Staphylococcus aureus; experiment: Antibacterial activity against Staphylococcus aureus clinical isolate 5 assessed as growth inhibition at pH 7 after 16 to 18 hr by NCCLS agar dilution method; assay type: functional
# [12] = test system: Staphylococcus aureus; experiment: Antibacterial activity against Staphylococcus aureus clinical isolate 1 assessed as growth inhibition after 16 to 18 hr by NCCLS agar dilution method; assay type: functional
# [13] = test system: Helicobacter pylori; experiment: Antibacterial activity against Helicobacter pylori 05-5 assessed as growth inhibition after 16 to 18 hr NCCLS agar dilution method; assay type: functional
# [14] = test system: Staphylococcus aureus; experiment: Antibacterial activity against Staphylococcus aureus clinical isolate 21 assessed as growth inhibition at pH 7 after 16 to 18 hr by NCCLS agar dilution method; assay type: functional
# [15] = Acute toxicity in KM Mus musculus (mouse) administered through intragastrically measured for 1 week; assay type: organism-based; conditions: in vivo, po
# [16] = test system: Helicobacter pylori; experiment: Antibacterial activity against Helicobacter pylori 05-3 assessed as growth inhibition after 16 to 18 hr NCCLS agar dilution method; assay type: functional
# [17] = test system: Staphylococcus aureus; experiment: Antibacterial activity against Staphylococcus aureus clinical isolate 24 assessed as growth inhibition at pH 7 after 16 to 18 hr by NCCLS agar dilution method; assay type: functional
# [18] = test system: Helicobacter pylori; experiment: Antibacterial activity against Helicobacter pylori 06-5 assessed as growth inhibition after 16 to 18 hr NCCLS agar dilution method; assay type: functional
# [19] = test system: Helicobacter pylori; experiment: Antibacterial activity against Helicobacter pylori 06-1 assessed as growth inhibition after 16 to 18 hr NCCLS agar dilution method; assay type: functional
# [20] = test system: Staphylococcus aureus; experiment: Antibacterial activity against Staphylococcus aureus clinical isolate 6 assessed as growth inhibition after 16 to 18 hr by NCCLS agar dilution method; assay type: functional
# [21] = test system: Helicobacter pylori; experiment: Antibacterial activity against Helicobacter pylori 05-4 assessed as growth inhibition after 16 to 18 hr NCCLS agar dilution method; assay type: functional, 05-Apr
# [22] = test system: Staphylococcus aureus; experiment: Antibacterial activity against Staphylococcus aureus clinical isolate 9 assessed as growth inhibition at pH 9 after 16 to 18 hr by NCCLS agar dilution method; assay type: functional
# [23] = test system: Staphylococcus aureus; experiment: Antibacterial activity against Staphylococcus aureus clinical isolate 6 assessed as growth inhibition at pH 5 after 16 to 18 hr by NCCLS agar dilution method; assay type: functional
# [24] = test system: Staphylococcus aureus; experiment: Antibacterial activity against Staphylococcus aureus clinical isolate 11 assessed as growth inhibition at pH 9 after 16 to 18 hr by NCCLS agar dilution method; assay type: functional
# [25] = test system: Staphylococcus aureus; experiment: Bactericidal activity against Staphylococcus aureus clinical isolate 3 after 24 hr; assay type: functional; conditions: isolate 3, 24 h
# [26] = test system: Staphylococcus aureus; experiment: Antibacterial activity against Staphylococcus aureus clinical isolate 17 assessed as growth inhibition at pH 5 after 16 to 18 hr by NCCLS agar dilution method; assay type: functional
# [27] = test system: Staphylococcus aureus; experiment: Antibacterial activity against Staphylococcus aureus clinical isolate 14 assessed as growth inhibition at pH 9 after 16 to 18 hr by NCCLS agar dilution method; assay type: functional
# [28] = test system: Staphylococcus aureus; experiment: Antibacterial activity against Staphylococcus aureus clinical isolate 6 assessed as growth inhibition at pH 7 after 16 to 18 hr by NCCLS agar dilution method; assay type: functional
# [29] = test system: Staphylococcus aureus; experiment: Bactericidal activity against methicillin-resistant Staphylococcus aureus isolate 4 after 24 hr; assay type: functional; conditions: isolate 4, 24 h
# [30] = test system: Pseudomonas aeruginosa; experiment: Antibacterial activity against Pseudomonas aeruginosa ATCC 27853 assessed as growth inhibition after 16 to 18 hr NCCLS agar dilution method; assay type: functional
# [31] = test system: Helicobacter pylori; experiment: Antibacterial activity against Helicobacter pylori assessed as growth inhibition after 16 to 18 hr NCCLS agar dilution method; assay type: functional
# [32] = test system: Staphylococcus aureus; experiment: Antibacterial activity against Staphylococcus aureus clinical isolate 12 assessed as growth inhibition at pH 7 after 16 to 18 hr by NCCLS agar dilution method; assay type: functional
# [33] = test system: Staphylococcus aureus; experiment: Antibacterial activity against Staphylococcus aureus clinical isolate 14 assessed as growth inhibition at pH 7 after 16 to 18 hr by NCCLS agar dilution method; assay type: functional
# [34] = test system: Staphylococcus aureus; experiment: Antibacterial activity against Staphylococcus aureus clinical isolate 20 assessed as growth inhibition at pH 9 after 16 to 18 hr by NCCLS agar dilution method; assay type: functional
# [35] = test system: Helicobacter pylori; experiment: Antibacterial activity against Helicobacter pylori 06-7 assessed as growth inhibition after 16 to 18 hr NCCLS agar dilution method; assay type: functional
# [36] = test system: Staphylococcus aureus; experiment: Antibacterial activity against Staphylococcus aureus clinical isolate 3 assessed as growth inhibition at pH 9 after 16 to 18 hr by NCCLS agar dilution method; assay type: functional
# [37] = test system: Staphylococcus aureus; experiment: Antibacterial activity against Staphylococcus aureus clinical isolate 15 assessed as growth inhibition at pH 9 after 16 to 18 hr by NCCLS agar dilution method; assay type: functional
# [38] = test system: Staphylococcus aureus; experiment: Antibacterial activity against Staphylococcus aureus clinical isolate assessed as growth inhibition at pH 9 after 16 to 18 hr by NCCLS agar dilution method; assay type: functional
# [39] = test system: Helicobacter pylori; experiment: Antibacterial activity against Helicobacter pylori 05-2 assessed as growth inhibition after 16 to 18 hr NCCLS agar dilution method; assay type: functional
# [40] = test system: Staphylococcus aureus; experiment: Antibacterial activity against Staphylococcus aureus clinical isolate 18 assessed as growth inhibition at pH 5 after 16 to 18 hr by NCCLS agar dilution method; assay type: functional
# [41] = test system: Staphylococcus aureus; experiment: Antibacterial activity against Staphylococcus aureus clinical isolate 1 assessed as growth inhibition at pH 5 after 16 to 18 hr by NCCLS agar dilution method; assay type: functional
# [42] = test system: Staphylococcus aureus; experiment: Bactericidal activity against Staphylococcus aureus clinical isolate 6 after 24 hr; assay type: functional; conditions: isolate 6, 24 h
# [43] = test system: Escherichia coli; experiment: Antibacterial activity against Escherichia coli ATCC 25922 assessed as growth inhibition after 16 to 18 hr NCCLS agar dilution method; assay type: functional
structure (smiles),measurement,setting,value
CO/N=C/CC(=O)c1ccc(OC)cc1,MIC,[1],16 µg/mL
same,MBC,[2],> 128 µg/mL
same,MIC,[3],8 µg/mL
same,MIC50,[4],16 µg/mL
same,MIC90,[4],32 µg/mL
same,MIC,[5],8 µg/mL
same,MIC,[6],8 µg/mL
same,MIC,[7],8 µg/mL
same,MBC,[8],64 µg/mL
same,MIC,[9],8 µg/mL
same,MIC,[10],8 µg/mL
same,MIC,[11],16 µg/mL
same,MIC,[12],16 µg/mL
same,MIC,[13],32 µg/mL
same,MIC,[14],16 µg/mL
same,MTD at 168 h,[15],5000 mg/kg
same,MIC,[16],16 µg/mL
same,MIC,[17],8 µg/mL
same,MIC,[18],32 µg/mL
same,MIC,[19],16 µg/mL
same,MIC,[20],8 µg/mL
same,MIC,[21],16 µg/mL
same,MIC,[22],8 µg/mL
same,MIC,[23],64 µg/mL
same,MIC,[24],8 µg/mL
same,MBC,[25],64 µg/mL
same,MIC,[26],16 µg/mL
same,MIC,[27],8 µg/mL
same,MIC,[28],32 µg/mL
same,MBC,[29],256 µg/mL
same,MIC,[30],> 64 µg/mL
same,MIC50,[31],32 µg/mL
same,MIC90,[31],32 µg/mL
same,MIC,[32],32 µg/mL
same,MIC,[33],16 µg/mL
same,MIC,[34],8 µg/mL
same,MIC,[35],32 µg/mL
same,MIC,[36],8 µg/mL
same,MIC,[37],8 µg/mL
same,MIC50,[38],8 µg/mL
same,MIC90,[38],16 µg/mL
same,MIC,[39],16 µg/mL
same,MIC,[40],32 µg/mL
same,MIC,[41],64 µg/mL
same,MBC,[42],64 µg/mL
same,MIC,[43],> 64 µg/mL
